Data published in patent publication US20240279710A1, “FLUORESCENT PROBES” (TOHOKU TECHNO ARCH CO., LTD., priority 2021, published 2024).

Key:
[1] = Optical characteristics: absorption and fluorescence spectrum at each pH; type: physicochemical; conditions: 10 mM phosphate buffer, pH 2 to 11, 1 μM probe, 1% DMSO, excitation 490 nm; neutral condition
Method: The absorption spectrum and fluorescence spectrum of Compound 19 at each pH were each measured. Specifically, a measurement solution was prepared by adding a solution (0.1 mM) of Compound 19 in DMSO to a 10 mM phosphate buffer at each pH in the pH range of from 2 to 11 so that the final probe concentration became 1 μM, and the final DMSO concentration became 1%. The fluorescence spectrum of the measurement solution was measured at an excitation wavelength of 490 nm.

retinal ganglion cells = assay: Glutamic acid injury of retinal ganglion cells isolated from iPS cell-derived retinal tissue; type: cell-based, human; conditions: glutamic acid 300 μM, probe 5 μM added 1 hour later, imaged 1 hour thereafter; FIG. 24
Method: A glutamic acid injury model that activated a calpain to induce a retinal ganglion cell injury was produced from the iPS cell-derived three-dimensional stereoscopic retinal tissue, and calpain activity with Compound 19 was evaluated by using the model. First, to identify a retinal ganglion cell injury caused by a glutamic acid injury, retinal ganglion cells were isolated from the iPS cell-derived three-dimensional stereoscopic retinal tissue with auto MACS pro (trademark) and CD90 MicroBeads. Glutamic acid (final concentration: 300 μM) was added to the cells to be caused to react therewith for 1 hour. Compound 19 (final concentration: 5 μM) was added thereto 1 hour after the addition of glutamic acid, and images of the state and fluorescence of the cells were taken (RGB and B/W modes) with a fluorescence microscope (ZEISS Axio Vert.A1) 1 hour thereafter.

- absorption spectrum and fluorescence spectrum at each pH [1]: mainly colorless and nonfluorescent
SMILES: COCC(=O)N[C@@H](CC(C)C)C(=O)N[C@@H](CCSC)C(=O)Nc1ccc2c(c1)Oc1cc(N)ccc1C21OCc2ccccc21 (some centres unmarked) [Compound 19]
- fluorescence of isolated retinal ganglion cells (retinal ganglion cells): enhancement of the fluorescence
